Some test systems named below: U-251; MOLT-4; CAKI-1; OVCAR-4; M14; MDA-MB-231; K562; BT-549; HT-29; OVCAR-5; HL-60; T47D; SK-OV-3; SK-MEL-5; TK-10; SF-268; A549; NCI-H226; ACHN; NCI-H522.
Assay in all cases: inhibition of tumour cell growth, NCI panel, 48 h

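In this assay, cells in 96-well plates receive the compound at five concentrations for 48 hours. Endpoints are linearly interpolated between the surrounding concentrations. GI50 is the concentration that inhibits growth by half.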 Activity calls are given as the source filed them. No stated cut-off is given here; in the data, active = GI50 up to about 1.1 µM and inactive = higher.

With `FC(F)(F)c1n[nH]c(SCc2ccc(Cl)cc2)n1`, the GI50 with U-251, in the assay with MOLT-4, with CAKI-1, with OVCAR-4, in the assay on M14 and with MDA-MB-231 was > 100 µM (inactive) each time. Moreover, the GI50 in the assay on K562, in the assay with BT-549, in the assay with HT-29, in the assay with OVCAR-5, in the assay with HL-60 and in the assay with T47D was > 100 µM (inactive) each time. The GI50 in the assay on SK-OV-3, in the assay with SK-MEL-5, in the assay with TK-10, with SF-268, in the assay with A549 and in the assay on NCI-H226 was > 100 µM (inactive) throughout. Further, the GI50 with ACHN and in the assay with NCI-H522 was > 100 µM (inactive) each time.
On to `O=C1CC2OCC=C3CN4CCC56c7ccccc7N1C5C2C3CC46O` (stereo not drawn), for which the GI50 with U-251 was > 100 µM (inactive); in the assay on MOLT-4, > 100 µM (inactive); in the assay with CAKI-1, 97.3 µM (inactive); in the assay on OVCAR-4, > 100 µM (inactive); in the assay on M14, > 100 µM (inactive); in the assay with MDA-MB-231, > 100 µM (inactive). The GI50 with K562, in the assay on BT-549, in the assay with HT-29, with OVCAR-5, with HL-60 and with T47D was > 100 µM (inactive) in each case. The GI50 in the assay on SK-OV-3, in the assay on SK-MEL-5, in the assay with TK-10, in the assay on SF-268, with A549 and in the assay with NCI-H226 was > 100 µM (inactive) throughout. Further, the GI50 was > 100 µM (inactive) in the assay with ACHN and 47.5 µM (inactive) with NCI-H522.
In the case of `O=c1[nH]c2ccc(CC(=S)N3CCN(c4ccccc4)CC3)cc2o1`, the GI50 in the assay with U-251 is 41.2 µM (inactive); with MOLT-4 it was > 80.7 µM (inactive); in the assay on CAKI-1 it was 97.9 µM (inactive); with OVCAR-4, > 100 µM (inactive); in the assay on M14 it was > 100 µM (inactive); in the assay on MDA-MB-231, > 100 µM (inactive). The GI50 is 53.2 µM (inactive) with K562; > 100 µM (inactive) in the assay with BT-549; > 100 µM (inactive) with HT-29; > 100 µM (inactive) in the assay with OVCAR-5; 6.18 µM (inactive) in the assay with HL-60; > 100 µM (inactive) in the assay with T47D. Moreover, the GI50 in the assay on SK-OV-3 is > 100 µM (inactive); in the assay on SK-MEL-5, 48.9 µM (inactive); in the assay on TK-10 it was > 100 µM (inactive); with SF-268, > 76.4 µM (inactive); in the assay with A549, 85.3 µM (inactive); with NCI-H226, > 42 µM (inactive). Also, the GI50 is > 100 µM (inactive) in the assay with ACHN and 86.7 µM (inactive) in the assay on NCI-H522.
Take `CC(C)(N)C(=O)N[C@@H]1C(=O)N2[C@@H]1SC(C)(C)[C@@H]2C(=O)O`: the GI50 in the assay with U-251, with CAKI-1, in the assay on OVCAR-4, in the assay on M14, with MDA-MB-231 and in the assay on K562 was > 100 µM (inactive) in each case. For the same molecule, the GI50 with BT-549 was > 100 µM (inactive); in the assay on HT-29, > 100 µM (inactive); in the assay with OVCAR-5 it was > 100 µM (inactive); with HL-60 it was < 0.01 µM (active); in the assay on T47D, > 100 µM (inactive); in the assay with SK-OV-3, > 100 µM (inactive). The GI50 in the assay on SK-MEL-5, in the assay with TK-10, in the assay with SF-268, with A549, in the assay with NCI-H226 and with ACHN was > 100 µM (inactive) throughout. In the assay with NCI-H522, the GI50 was > 100 µM (inactive).
Turning to `CCOC(=O)/C(C#N)=C(/NS(=O)(=O)c1cc(C)c(Cl)cc1[S-])[n+]1ccc(N(C)C)cc1`, the GI50 in the assay on U-251, in the assay with MOLT-4, in the assay with CAKI-1, in the assay on OVCAR-4, with M14 and in the assay with MDA-MB-231 was > 100 µM (inactive) throughout. In addition, the GI50 in the assay on K562, in the assay on BT-549, in the assay on HT-29, in the assay on OVCAR-5, in the assay on HL-60 and with T47D was > 100 µM (inactive) throughout. Also, the GI50 with SK-OV-3, in the assay on SK-MEL-5, in the assay with TK-10, in the assay on SF-268, in the assay on A549 and in the assay with NCI-H226 was > 100 µM (inactive) throughout. The GI50 in the assay on ACHN and in the assay with NCI-H522 was > 100 µM (inactive) in each case.
For `CCCCc1ccc(Nc2nc3c(ncn3C3CC(O)C(CN=[N+]=[N-])O3)c(=O)[nH]2)cc1` (stereo not drawn), the GI50 with U-251, with MOLT-4, in the assay with CAKI-1, with OVCAR-4, with M14 and in the assay on MDA-MB-231 was > 100 µM (inactive) in each case. Moreover, the GI50 in the assay on K562 was > 100 µM (inactive); in the assay with BT-549, > 100 µM (inactive); in the assay on HT-29 it was > 100 µM (inactive); in the assay with OVCAR-5, > 100 µM (inactive); in the assay on HL-60 it was > 100 µM (inactive); in the assay on T47D, 54.7 µM (inactive). Besides, the GI50 with SK-OV-3, with SK-MEL-5, in the assay with SF-268, in the assay on A549, in the assay with NCI-H226 and in the assay on ACHN was > 100 µM (inactive) in each case. Also, in the assay on NCI-H522, the GI50 is > 100 µM (inactive).
With `CCOC(=O)c1nnsc1NC(=O)NN`, the GI50 is > 100 µM (inactive) with U-251; > 10 µM (inactive) in the assay on MOLT-4; > 100 µM (inactive) in the assay with CAKI-1; > 100 µM (inactive) in the assay with M14; 25.4 µM (inactive) in the assay on MDA-MB-231; 41.1 µM (inactive) in the assay with K562. In addition, the GI50 in the assay with BT-549, with HT-29, with OVCAR-5, in the assay on HL-60, in the assay on T47D and in the assay on SK-OV-3 was > 100 µM (inactive) each time. Further, the GI50 in the assay with SK-MEL-5, in the assay on TK-10, in the assay with SF-268, with A549, with NCI-H226 and in the assay with ACHN was > 100 µM (inactive) in each case. Moreover, the GI50 in the assay on NCI-H522 is > 100 µM (inactive).
In the case of `C(/Cc1ccc2c(c1)OCO2)=N\N=C1NCCCN1`, the GI50 with U-251 is 75.7 µM (inactive); with MOLT-4, 24.7 µM (inactive); with OVCAR-4 it was 98.9 µM (inactive); in the assay with M14, 32.4 µM (inactive); in the assay on MDA-MB-231 it was > 100 µM (inactive); in the assay with K562, 35.1 µM (inactive). The GI50 in the assay on BT-549 was 64.7 µM (inactive); in the assay with HT-29, 65.5 µM (inactive); in the assay with OVCAR-5 it was 59 µM (inactive); in the assay with HL-60 it was 31.6 µM (inactive); in the assay on T47D, 19.5 µM (inactive); with SK-OV-3 it was 42.1 µM (inactive). For the same molecule, the GI50 in the assay with SK-MEL-5 is 25 µM (inactive); in the assay on TK-10 it was > 100 µM (inactive); in the assay on SF-268 it was 93.8 µM (inactive); with A549 it was 36.7 µM (inactive); with NCI-H226, > 100 µM (inactive); in the assay with ACHN, 28 µM (inactive). Also, the GI50 in the assay on NCI-H522 was 55.3 µM (inactive).
With `ClC(Cl)(Cl)C1CCOC1n1nc2ccccc2n1` (stereo not drawn), the GI50 with U-251, in the assay on MOLT-4, in the assay on CAKI-1, in the assay with OVCAR-4, in the assay on M14 and with MDA-MB-231 was > 100 µM (inactive) throughout. Further, the GI50 in the assay with K562 was > 100 µM (inactive); in the assay on BT-549, > 100 µM (inactive); in the assay with HT-29 it was > 100 µM (inactive); in the assay on OVCAR-5, > 100 µM (inactive); with HL-60, 49.9 µM (inactive); with T47D it was > 100 µM (inactive). Moreover, the GI50 in the assay with SK-OV-3, with SK-MEL-5, with TK-10, in the assay with SF-268, in the assay on A549 and with NCI-H226 was > 100 µM (inactive) in each case. Further, the GI50 with NCI-H522 was > 100 µM (inactive).
As to `COc1ccc(-n2sc3ncc([N+](=O)[O-])cc3c2=O)cc1`, the GI50 in the assay with U-251, in the assay on MOLT-4, in the assay on OVCAR-4, with M14, in the assay on MDA-MB-231 and with BT-549 was > 100 µM (inactive) in each case. Besides, the GI50 in the assay on HT-29, with OVCAR-5, in the assay on HL-60, in the assay with T47D, in the assay on SK-OV-3 and in the assay with SK-MEL-5 was > 100 µM (inactive) throughout. Besides, the GI50 with TK-10 was > 100 µM (inactive); in the assay with SF-268, > 100 µM (inactive); in the assay with A549 it was > 100 µM (inactive); in the assay with NCI-H226 it was > 100 µM (inactive); in the assay with ACHN it was > 100 µM (inactive); in the assay on NCI-H522, 34.4 µM (inactive).

The record behind these values is ChEMBL document CHEMBL1201862, “PubChem BioAssay data set” (2004).
